The IC50 is the midpoint of a concentration-inhibition curve.

Each structure is given as a SMILES string.

The values that follow come from patent publication US10150728B2, “Alkylene derivatives” (Shionogi & Co., Ltd., priority 2013, dated 2018).

Chain of recombinant human ACC2 (O00763 27-2458): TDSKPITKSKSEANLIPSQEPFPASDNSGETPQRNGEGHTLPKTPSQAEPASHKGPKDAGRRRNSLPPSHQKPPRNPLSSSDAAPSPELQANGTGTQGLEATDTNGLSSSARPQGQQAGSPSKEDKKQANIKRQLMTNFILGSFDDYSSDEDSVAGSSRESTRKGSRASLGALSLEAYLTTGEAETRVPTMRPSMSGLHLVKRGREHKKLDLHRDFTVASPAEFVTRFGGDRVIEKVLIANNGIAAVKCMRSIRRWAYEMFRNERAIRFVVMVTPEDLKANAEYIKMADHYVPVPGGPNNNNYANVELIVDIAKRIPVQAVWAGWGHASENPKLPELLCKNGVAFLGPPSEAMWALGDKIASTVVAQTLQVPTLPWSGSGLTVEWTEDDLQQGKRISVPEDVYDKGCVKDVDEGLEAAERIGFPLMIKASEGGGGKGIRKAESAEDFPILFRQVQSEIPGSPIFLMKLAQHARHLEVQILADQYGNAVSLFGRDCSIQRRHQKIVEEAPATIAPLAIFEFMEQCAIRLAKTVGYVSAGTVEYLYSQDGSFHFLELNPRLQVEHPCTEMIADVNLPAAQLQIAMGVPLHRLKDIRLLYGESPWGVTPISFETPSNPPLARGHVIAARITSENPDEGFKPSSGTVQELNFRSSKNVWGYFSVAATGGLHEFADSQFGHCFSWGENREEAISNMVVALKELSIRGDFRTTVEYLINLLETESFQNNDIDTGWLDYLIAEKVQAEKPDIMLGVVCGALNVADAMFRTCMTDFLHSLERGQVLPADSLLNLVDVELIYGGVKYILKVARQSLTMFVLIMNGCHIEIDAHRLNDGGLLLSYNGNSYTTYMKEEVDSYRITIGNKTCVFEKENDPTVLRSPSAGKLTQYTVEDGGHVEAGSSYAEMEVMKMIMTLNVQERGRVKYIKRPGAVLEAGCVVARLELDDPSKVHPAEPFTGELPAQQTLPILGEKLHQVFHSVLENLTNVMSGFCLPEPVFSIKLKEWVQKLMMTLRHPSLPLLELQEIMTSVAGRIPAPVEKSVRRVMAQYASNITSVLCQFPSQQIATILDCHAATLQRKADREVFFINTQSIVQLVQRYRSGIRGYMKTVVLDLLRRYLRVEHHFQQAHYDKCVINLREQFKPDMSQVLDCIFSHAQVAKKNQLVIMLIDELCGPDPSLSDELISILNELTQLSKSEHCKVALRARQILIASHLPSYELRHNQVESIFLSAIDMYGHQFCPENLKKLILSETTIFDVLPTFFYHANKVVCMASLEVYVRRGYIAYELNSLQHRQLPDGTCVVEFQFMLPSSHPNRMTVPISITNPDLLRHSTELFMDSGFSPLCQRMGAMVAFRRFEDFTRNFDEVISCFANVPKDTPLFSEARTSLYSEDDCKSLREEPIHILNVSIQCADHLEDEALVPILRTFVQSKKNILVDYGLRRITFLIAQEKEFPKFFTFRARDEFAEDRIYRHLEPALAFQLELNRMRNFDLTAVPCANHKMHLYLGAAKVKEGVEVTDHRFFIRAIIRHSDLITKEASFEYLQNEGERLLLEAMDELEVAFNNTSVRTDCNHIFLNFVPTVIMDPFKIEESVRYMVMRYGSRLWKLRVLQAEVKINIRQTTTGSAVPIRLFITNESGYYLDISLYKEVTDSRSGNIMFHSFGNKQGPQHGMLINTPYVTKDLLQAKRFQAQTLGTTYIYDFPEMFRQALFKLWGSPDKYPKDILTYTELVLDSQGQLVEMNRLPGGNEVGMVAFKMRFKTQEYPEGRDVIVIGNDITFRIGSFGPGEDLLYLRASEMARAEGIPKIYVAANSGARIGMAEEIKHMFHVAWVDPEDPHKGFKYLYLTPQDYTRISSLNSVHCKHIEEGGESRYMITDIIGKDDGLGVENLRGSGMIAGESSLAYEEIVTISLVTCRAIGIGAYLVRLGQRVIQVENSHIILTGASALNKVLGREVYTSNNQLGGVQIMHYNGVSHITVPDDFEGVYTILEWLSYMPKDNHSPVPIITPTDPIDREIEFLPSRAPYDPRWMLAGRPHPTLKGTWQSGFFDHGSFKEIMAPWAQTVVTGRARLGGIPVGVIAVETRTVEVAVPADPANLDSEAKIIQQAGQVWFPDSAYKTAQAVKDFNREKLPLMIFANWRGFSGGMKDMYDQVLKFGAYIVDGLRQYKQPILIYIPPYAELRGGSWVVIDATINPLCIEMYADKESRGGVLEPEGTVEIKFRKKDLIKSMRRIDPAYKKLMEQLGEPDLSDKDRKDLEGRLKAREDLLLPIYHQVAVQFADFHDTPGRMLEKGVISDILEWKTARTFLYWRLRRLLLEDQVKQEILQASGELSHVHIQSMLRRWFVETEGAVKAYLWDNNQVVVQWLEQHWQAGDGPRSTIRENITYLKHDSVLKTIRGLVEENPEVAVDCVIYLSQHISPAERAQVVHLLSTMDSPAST

The experiment addresses recombinant human ACC2 (Homo sapiens (Human), UniProt O00763). Kind of experiment: Measurement of inhibitory activity on human ACC2 (MALDI-TOF MS, acetyl CoA to malonyl CoA conversion). It counts as biochemical. Particulars: Tables 155-159. The gist of the method: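 His-tagged human ACC2 (residues 27–2458) from baculovirus-infected Sf-9 cells was preincubated 1 h in pH 7.4 HEPES-KOH buffer with MgCl2, 6-10 mM potassium citrate, glutathione and BSA. Substrate solution held 1 mM ATP, 0.8 mM acetyl CoA and 25-50 mM bicarbonate. After 1–3 h at room temperature, malonyl CoA/(malonyl+acetyl CoA) was read by negative-mode MALDI-TOF MS; citrate, bicarbonate and time varied by enzyme lot.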
With `CC(=O)N[C@@H](C)CO[C@H]1CC[C@H](Oc2nc3c(F)cc(OC4CC4)c(Cl)c3n2C)CC1` [Compound I-655], the IC50 came to 2 nM.

For `C[C@@H](CO[C@H]1CC[C@H](Oc2nc3c(F)cc(OCC(F)F)c(F)c3n2C)CC1)NC(=O)c1cn[nH]c1` [Compound I-656], the IC50 stood at 39 nM.

Take `CC(=O)N[C@@H](C)CC[C@H]1CC[C@H](Oc2nc3cnc(OCC(F)F)c(Cl)c3n2C)CO1` [Compound I-657]: the IC50 worked out at 14 nM.

For the molecule `CC(=O)N[C@@H](C)CO[C@H]1CC[C@H](Oc2nc3cc(F)c(OCC(F)F)c(F)c3n2C)CC1` [Compound I-658], the 50% inhibitory concentration (IC50) amounted to 4 nM.

As for `CC(=O)N[C@@H](C)[C@H](C)O[C@H]1CC[C@H](Oc2nc3c(F)cc(OCC(F)F)c(F)c3n2C)CC1` [Compound I-659], the IC50 turned out to be 23 nM.

Turning to `CCOc1ccc2nc(O[C@H]3CC[C@H](OC[C@H](C)NC(C)=O)CC3)n(C)c2c1-c1ccccc1` [Compound I-661], the IC50 came out at 457 nM.

Consider `CC(=O)N[C@@H](C)CO[C@H]1CC[C@H](Oc2nc3cnc(OCC4CC4)c(Cl)c3n2C)CC1` [Compound I-662], for which the IC50 was 5 nM.

Regarding `CC(=O)N[C@@H](C)CO[C@H]1CC[C@H](Oc2nc3c(C#N)cc(C4CC4)cc3n2C)CC1` [Compound I-663], the IC50 was 700 nM.

Take `CC(=O)N[C@@H](C)CO[C@H]1CC[C@H](Oc2nc3cnc(OC4(C)CC4)c(Cl)c3n2C)CC1` [Compound I-664]: the IC50 amounted to 11 nM.

Take `CCOc1cc(F)c2nc(O[C@H]3CC[C@H](OC[C@H](C)NC(C)=O)CC3)n(C)c2c1F` [Compound I-665]: the 50% inhibitory concentration (IC50) was found to be 4 nM.

With `COc1cc(OCc2ccccc2)cc2c1nc(O[C@H]1CC[C@H](OC[C@H](C)NC(C)=O)CC1)n2C` [Compound I-666], the IC50 worked out at 298 nM.

Consider `CC(=O)N[C@@H](C)CO[C@H]1CC[C@H](Oc2nc3cnc(OC4CC4)c(F)c3n2C)CC1` [Compound I-667], for which the IC50 came to 8 nM.

Turning to `C[C@@H](CO[C@H]1CC[C@H](Oc2nc3c(F)cc(OC4CC4)c(F)c3n2C)CC1)NC(=O)CO` [Compound I-668], the IC50 turned out to be 7 nM.

In the case of `CC(=O)N[C@@H](CO)CO[C@H]1CC[C@H](Oc2nc3cnc(OCC(F)F)c(Cl)c3n2C)CC1` [Compound I-669], the IC50 was found to be 620 nM.

As to `C[C@@H](CO[C@H]1CC[C@H](Oc2nc3c(F)cc(OCC(F)F)c(F)c3n2C)CC1)NC(N)=O` [Compound I-670], the IC50 was determined as 11 nM.

`C[C@@H](CO[C@H]1CC[C@H](Oc2nc3c(F)cc(OC4CC4)c(F)c3n2C)CC1)NS(C)(=O)=O` [Compound I-671]: the IC50 was determined as 11 nM.

As for `COC(=O)N[C@@H](C)CO[C@H]1CC[C@H](Oc2nc3c(F)cc(OCC(F)F)c(F)c3n2C)CC1` [Compound I-672], the concentration for half-maximal inhibition (IC50) is 30 nM.

As for `CC(=O)N[C@@H](C)CO[C@H]1CC[C@H](Oc2nc3c(C(N)=O)cc(OC4CC4)c(F)c3n2C)CC1` [Compound I-673], the IC50 is 650 nM.

For the molecule `C[C@@H](CC[C@@H]1CC[C@@H](Oc2nc3c(F)cc(OCC(F)F)c(Cl)c3n2C)CO1)NC(N)=O` [Compound I-674], the half-inhibitory concentration (IC50) stood at 7 nM.

Consider `CC(=O)N[C@@H](C)[C@H](C)O[C@H]1CC[C@H](Oc2nc3cnc(OCC(F)F)c(Cl)c3n2C)CC1` [Compound I-675], for which the half-inhibitory concentration (IC50) is 18 nM.

In the case of `CC(=O)N[C@@H](C)CO[C@H]1CC[C@H](Oc2nc3ccc(OCC(F)F)c(F)c3n2C)CC1` [Compound I-677], the IC50 amounted to 13 nM.

For the molecule `CC(=O)N[C@@H](C)CO[C@H]1CC[C@H](Oc2nc3c(Cl)cc(Br)cc3n2C)CC1` [Compound I-678], the concentration for half-maximal inhibition (IC50) is 123 nM.

Turning to `CC(=O)N[C@@H](C)CO[C@H]1CC[C@H](Oc2nc3c(C#N)cc(OCC(F)F)cc3n2C)CC1` [Compound I-679], the IC50 came to 625 nM.

For the molecule `CC(=O)N[C@@H](C)CO[C@H]1CC[C@H](Oc2nc3c(Br)cc(OCC(F)F)cc3n2C)CC1` [Compound I-680], the IC50 was determined as 140 nM.

On to `C[C@@H](CC[C@H]1CC[C@H](Oc2nc3cnc(OC4CC4)c(Cl)c3n2C)CC1)NC(N)=O` [Compound I-682], for which the IC50 came out at 5 nM.

On to `C[C@@H](CO[C@H]1CC[C@H](Oc2nc3c(F)cc(OC4CC4)c(F)c3n2C)CC1)NC(=O)C(F)F` [Compound I-683], for which the IC50 came to 3 nM.

On to `CC(=O)N[C@@H](C)CC[C@@H]1CC[C@@H](Oc2nc3cnc(OCC(F)F)c(Cl)c3n2C)CO1` [Compound I-684], for which the IC50 amounted to 6 nM.

In the case of `CCOc1c(F)cc2c(nc(O[C@H]3CC[C@H](OC[C@H](C)NC(C)=O)CC3)n2C)c1F` [Compound I-685], the IC50 came to 170 nM.

In the case of `CCOc1nc(F)c2nc(O[C@H]3CC[C@H](OC[C@H](C)NC(C)=O)CC3)n(C)c2c1Cl` [Compound I-686], the IC50 was found to be 5 nM.

With `C[C@@H](CO[C@H]1CC[C@H](Oc2nc3c(F)cc(OCC(F)F)c(Cl)c3n2C)CC1)NC(N)=O` [Compound I-687], the IC50 is 14 nM.

For `CC(=O)N[C@@H](C)CC[C@@H]1CC[C@@H](Oc2nc3c(F)cc(OCC(F)F)c(Cl)c3n2C)CO1` [Compound I-688], the IC50 was 4 nM.

As to `CC(=O)N[C@@H](C)[C@H](C)O[C@H]1CC[C@H](Oc2nc3cnc(OC4CC4)c(F)c3n2C)CC1` [Compound I-689], the IC50 turned out to be 25 nM.

Turning to `CC(=O)N[C@@H](C)CO[C@H]1CC[C@H](Oc2nc3ccc(Br)c(F)c3n2C)CC1` [Compound I-691], the IC50 came to 25 nM.

On to `CCOc1cc(Cl)c2nc(O[C@H]3CC[C@H](OC[C@H](C)NC(C)=O)CC3)n(C)c2c1` [Compound I-692], for which the IC50 was found to be 34 nM.

Turning to `CC(=O)N[C@@H](C)CO[C@H]1CC[C@H](Oc2nc3cnc(OC4CC(F)(F)C4)c(Cl)c3n2C)CC1` [Compound I-693], the IC50 turned out to be 8 nM.

Consider `CCOc1ncc2nc(O[C@H]3CC[C@H](OC[C@H](C)NC(C)=O)CC3)n(C)c2c1F` [Compound I-694], for which the IC50 was 13 nM.

`CC(=O)N[C@@H](C)CO[C@H]1CC[C@H](Oc2nc3cnc(C4CC4)c(Cl)c3n2C)CC1` [Compound I-695]: the IC50 is 96 nM.

Take `COC(=O)NC(=O)N[C@@H](C)CO[C@H]1CC[C@H](Oc2nc3cnc(OC4CC4)c(Cl)c3n2C)CC1` [Compound I-696]: the IC50 is 497 nM.

As for `C[C@@H](CO[C@H]1CC[C@H](Oc2nc3c(F)cc(OC4CC4)c(F)c3n2C)CC1)NC(N)=O` [Compound I-697], the IC50 came out at 4 nM.

`CCOc1c(F)cc2nc(O[C@H]3CC[C@H](OC[C@H](C)NC(C)=O)CC3)n(C)c2c1F` [Compound I-698]: the IC50 came to 3 nM.

Consider `CC(=O)N[C@@H](CF)CO[C@H]1CC[C@H](Oc2nc3c(F)cc(OCC(F)F)c(F)c3n2C)CC1` [Compound I-700], for which the IC50 came out at 9 nM.

Take `CNC(=O)N[C@@H](C)CO[C@H]1CC[C@H](Oc2nc3c(F)cc(OCC(F)F)c(F)c3n2C)CC1` [Compound I-701]: the IC50 was 23 nM.

`CC(=O)N[C@@H](C)CO[C@H]1OC[C@@H](Oc2nc3c(F)cc(OCC(F)F)c(F)c3n2C)C[C@@H]1C` [Compound I-702]: the 50% inhibitory concentration (IC50) worked out at 15 nM.

On to `CC(=O)N[C@@H](C)CO[C@H]1CC[C@H](Oc2nc3c(C#N)c(F)c(OCC(F)F)c(F)c3n2C)CO1` [Compound I-703], for which the IC50 came out at 30 nM.

Consider `CC(=O)N[C@@H](C)CO[C@H]1CC[C@H](Oc2nc3cnc(OC4CC4)c(Cl)c3n2C)CC1` [Compound I-705], for which the IC50 is 9 nM.

As to `CC(=O)N[C@@H](C)CO[C@H]1CC[C@H](Oc2nc3c(Cl)cc(OCC(F)F)cc3n2C)CC1` [Compound I-706], the IC50 was 48 nM.

Regarding `CC(=O)N[C@@H](C)CO[C@H]1CC[C@H](Oc2nc3c(F)cc(OCC(F)F)cc3n2C)CC1` [Compound I-707], the IC50 was determined as 84 nM.

With `CC(=O)N[C@@H](C)CO[C@H]1CC[C@H](Oc2nc3cnc(OCC4CC4(F)F)c(Cl)c3n2C)CC1` (stereo partly shown) [Compound I-708], the IC50 turned out to be 5 nM.

In the case of `CC(=O)N[C@@H](C)CO[C@H]1CC[C@H](Oc2nc3c(C)cc(OCC(F)F)cc3n2C)CC1` [Compound I-709], the IC50 amounted to 133 nM.

On to `CC(=O)N[C@@H](C)CO[C@H]1CC[C@H](Oc2nc3c(Cl)nc(OC4CC4)c(Cl)c3n2C)CC1` [Compound I-710], for which the IC50 was 6 nM.

Consider `CC(=O)N[C@@H](C)CO[C@H]1CC[C@H](Oc2nc3c(Cl)nc(OC4CC4)c(F)c3n2C)CC1` [Compound I-711], for which the IC50 stood at 7 nM.

For the molecule `CC(=O)N[C@@H](C)CO[C@H]1CC[C@H](Oc2nc3c(F)cc(OC4CC(F)(F)C4)c(F)c3n2C)CC1` [Compound I-713], the IC50 amounted to 3 nM.

On to `C[C@@H](CO[C@H]1CC[C@H](Oc2nc3c(F)cc(OCC(F)F)c(F)c3n2C)CC1)NC(=O)CC#N` [Compound I-714], for which the IC50 stood at 44 nM.

Take `CC(=O)N[C@@H](C)[C@@H](C)O[C@H]1CC[C@H](Oc2nc3c(F)cc(OCC(F)F)c(F)c3n2C)CC1` [Compound I-716]: the 50% inhibitory concentration (IC50) was 170 nM.

Consider `CC(=O)N[C@@H](C)CO[C@H]1CC[C@H](Oc2nc3c(F)c(C)c(OCC(F)F)c(F)c3n2C)CC1` [Compound I-717], for which the IC50 worked out at 15 nM.

In the case of `CCOc1ccc2nc(O[C@H]3CC[C@H](OC[C@H](C)NC(C)=O)CC3)n(C)c2c1C#N` [Compound I-720], the IC50 was found to be 775 nM.

As for `CC(=O)N[C@@H](C)CO[C@H]1CC[C@H](Oc2nc3cnc(OCC(F)F)c(Cl)c3n2C)CC1` [Compound I-722], the IC50 was determined as 9 nM.

For `CCOc1cc(F)c2nc(O[C@H]3CC[C@H](OC[C@H](C)NC(C)=O)CC3)n(C)c2c1` [Compound I-723], the IC50 was found to be 41 nM.

Regarding `CC(=O)N[C@@H](C)CO[C@H]1CC[C@H](Oc2nc3cnc(OC[C@@H](C)F)c(Cl)c3n2C)CC1` [Compound I-724], the IC50 was 9 nM.

Take `CCOc1cc2c(nc(O[C@H]3CC[C@H](OC[C@H](C)NC(C)=O)CC3)n2C)c(Cl)c1Cl` [Compound I-725]: the IC50 stood at 101 nM.

Consider `CC(=O)N[C@@H](C)CO[C@H]1CC[C@H](Oc2nc3c(C)nc(OC4CC4)c(Cl)c3n2C)CC1` [Compound I-726], for which the IC50 amounted to 9 nM.
